According to patent publication US8545884B2, “Solid pharmaceutical formulations comprising BIBW 2992” (Boehringer Ingelheim International GmbH, priority 2008, dated 2013):

Assays:
[1] = Tablet content uniformity (RSD) before and after roller compaction and sieving; type: physicochemical; settings: roller compaction, Sieve A
[2] = Chemical stability of the API against moisture / wet granulation; type: physicochemical
[3] = Bulk densities (poured, tapped; Ph. Eur. 2.9.15) and Hausner factor of powders; type: physicochemical; settings: for Hausner Factor (ρT/ρP) / Poured density (ρP) / Tapped density (ρT): un-milled drug substance
Experimental: Bulk density is measured according to Ph. Eur. 2.9.15 (European Pharmacopoeia, 4. Ed.) as poured density. The tapped density is measured according to Ph. Eur. 2.9.15 (see also Voigt R., Lehrbuch der pharmazeutischen Technologie [Textbook of Pharmaceutical Technology], Verlag Chemie, 5th Edition, page 148). The Hausner factor is a measure for the flowability/compressibility of powders and ideally should be close to 1. […] They range from 0.12 to 0.40 g/mL, caused by different needle lengths (Table 2). The roller compaction step was introduced for densification of the material (see Table 3), which may have • a variability of the poured density between […] (see Table 1) and • a Hausner Factor between 1.05 and 1.61 (see Table 1).

[4] = Phase I pharmacokinetics of BIBW 2992 monotherapy in cancer patients with advanced solid tumors; type: in vivo, human (cancer patients)
Experimental: In four Phase I studies in cancer patients with various advanced solid tumors the pharmacokinetik (PK) characteristics of BIBW 2992 were analyzed. Representative for all of the studies and all the tested dose groups (10 to 100 mg) the 40 mg dose group from one trial is being described in more detail. […] BIBW 2992 plasma concentrations increased after oral administration with peak plasma concentrations mostly around 2-5 hours after dosing. Plasma concentrations declined within the next hours (up to 9 h after dosing), displaying a first disposition phase.
The variability (gCV=geometric coefficient of variation) of the plasma concentrations of the active substance at the different time points was 109-159% up to 9 hours after drug administration but 66.9 to 72.9% at later time points (24 hours after drug administration).

[5] = Phase I pharmacokinetics of BIBW 2992 together with docetaxel in cancer patients; type: in vivo, human (cancer patients); settings: once daily dosing, visual inspection
[6] = batch 1, roller compaction, Sieve A, Sieve B
[7] = batch 1, roller compaction, Sieve A, Sieve C
[8] = batch 1, roller compaction, Sieve A, no sieving 2
[9] = batch 2, roller compaction, Sieve A, Sieve C
[10] = batch 3, roller compaction, Sieve A, Sieve C
[11] = 10 to 100 mg, qd dosing, single dose and steady state

## CN(C)C/C=C/C(=O)Nc1cc2c(Nc3ccc(F)c(Cl)c3)ncnc2cc1O[C@H]1CCOC1.O=C(O)/C=C\C(=O)O.O=C(O)/C=C\C(=O)O [BIBW 2992 MA2]
[1]; batch 1, Sieve B
  RSD- Tablet Content (High Dose): 1.4%
  RSD- Tablet Content (Low Dose): 3.6%
[1]; batch 1, Sieve C
  RSD- Tablet Content (High Dose): 1.0%
  RSD- Tablet Content (Low Dose): 1.4%
[1]; batch 1, no sieving 2
  RSD- Tablet Content (High Dose): 3.4%
  RSD- Tablet Content (Low Dose): 7.7%
[1]; batch 2, Sieve C
  RSD- Tablet Content (High Dose): 0.8%
[1]; batch 3, Sieve C
  RSD- Tablet Content (High Dose): 1.7%
[2]; drug substance as described in WO 2005/037824
  chemical stability against moisture: susceptibility against moisture
[2]; wet granulation processing
  stability during wet granulation: underwent hydrolytical decomposition and further degradation reaction
[3]; Table 3, drug substance batch 1, before processing
  Poured density: 0.12 g/mL
[3]; Table 3, drug substance batch 2, before processing
  Poured density: 0.31 g/mL
[3]; Table 3, drug substance batch 3, before processing
  Poured density: 0.40 g/mL
[3]; batch 1, no roller compaction, no sieving
  Poured density of Final Blend: 0.40 g/mL
[3]; [6]
  Poured density of Compacted Intermediate of BIBW 2992 MA2: 0.29 g/mL
  Poured density of Final Blend: 0.53 g/mL
[3]; [7]
  Poured density of Compacted Intermediate of BIBW 2992 MA2: 0.24 g/mL
  Poured density of Final Blend: 0.53 g/mL
[3]; [8]
  Poured density of Compacted Intermediate of BIBW 2992 MA2: 0.33 g/mL
  Poured density of Final Blend: 0.56 g/mL
[3]; [9]
  Poured density of Compacted Intermediate of BIBW 2992 MA2: 0.41 g/mL
  Poured density of Final Blend: 0.60 g/mL
[3]; [10]
  Poured density of Compacted Intermediate of BIBW 2992 MA2: 0.36 g/mL
  Poured density of Final Blend: 0.60 g/mL
[3]; batch 0
  Hausner Factor (ρT/ρP): 1.20
  Poured density (ρP): 0.23 g/mL
  Tapped density (ρT): 0.28 g/mL
[3]; batch 1
  Hausner Factor (ρT/ρP): 1.33
  Poured density (ρP): 0.12 g/mL
  Tapped density (ρT): 0.16 g/mL
[3]; batch 2
  Hausner Factor (ρT/ρP): 1.08
  Poured density (ρP): 0.40 g/mL
  Tapped density (ρT): 0.43 g/mL
[3]; batch 3
  Hausner Factor (ρT/ρP): 1.26
  Poured density (ρP): 0.31 g/mL
  Tapped density (ρT): 0.39 g/mL

## CN(C)C/C=C/C(=O)Nc1cc2c(Nc3ccc(F)c(Cl)c3)ncnc2cc1O[C@H]1CCOC1 [BIBW 2992, 4-[(3-chloro-4-fluorophenyl)amino]-6-{[4-(N,N-dimethylamino)-1-oxo-2-buten-1-yl]amino}-7-((S)-tetrahydrofuran-3-yloxy)-quinazoline]
[4]; 40 mg dose group, n=17, time points up to 9 hours after drug administration
  variability (gCV) of the plasma concentrations: 109-159%
[4]; 40 mg once daily oral, day 27 of Treatment Period 1
  disposition kinetics: at least biexponential disposition kinetics
[4]; 40 mg once daily oral, day 27 of Treatment Period 1, n=17
  time of peak plasma concentrations after dosing: 2 to 5 h
[4]; [11]
  gMean AUCτ,ss dose dependence: increased in a dose-proportional manner
  gMean Cmax,ss dose dependence: increased in a dose-proportional manner
[4]; various clinical trials, visual inspection, data not shown
  Cpre,ss (plasma concentration before drug administration at steady state) dose dependence: no deviation from dose-proportionality
[5]
  AUC and Cmax dose dependence: no sign for a deviation from a dose proportional increase
